Experimental data as given in patent publication US20100267733A1, “Synergistic Modulation of Microglial Activation by Nicotine and THC” (UNIVERSITY OF SOUTH FLORIDA, priority 2007, published 2010).
Like-named read-outs stand apart in the source and are kept apart here.

Legend:
[1] = system: microglial cells; experiment: LPS-induced TNF-α release in cultured microglial cells (ELISA); format: cell-based, murine
Description: Cultured microglial cells were plated in 24-well tissue-culture plates (Costar, Cambridge, Mass.), using minimum essential media supplemented with 5% fetal bovine serum, at […] cells per well. […] After pretreatment the cells were stimulated with LPS (100 ng/mL) for 4 hrs. Cell-free supernatants were collected and stored at −70° C. until analysis. The TNF-α level in the supernatants were examined using ELISA kits (R&D Systems) in strict accordance with the manufacturers' protocols. Cell lysates were also prepared and the Bio-Rad protein assay (Hercules, Calif.) was performed to measure total cellular protein. Results are shown as mean pg of TNF-α per mg of total cellular protein (+1-SEM).
Murine primary culture microglial cells were isolated from newborn mouse cerebral cortices under sterile conditions and kept at 4° C. prior to mechanical dissociation. Cells were plated in 75 cm^2 flasks in RPMI medium supplemented with 5% fetal calf serum, 2 mM glutamine, 100 units/mL penicillin, 0.1 μg/mL streptomycin, and 0.05 mM 2-mercaptoethanol and kept for 14 days so only glial cells remain. The microglial cells were isolated by shaking the flasks at 200 rpm. More than 98% of the glial cells remaining stain positive for membrane attack complex-1 (CD-11b, Roche Diagnostics Corp., Indianapolis, Ind.). Additionally, between 85% and 95% of microglial cells usually stain positive for CD45 by fluorescence activated cell sorter (FACS) analysis.
Cell cultured media was collected for measurement of cytokines by commercial cytokine ELISA kits, as described previously. In parallel, cell lysates were prepared for measurement of total cellular protein. Data was represented as ng/mg total cellular protein for each cytokine production.
Cell cultures were treated with nicotinic/THC treatment, as described above. […] Each cytokine was represented as pg of cytokine/mg of total cellular protein. Data was analyzed using ANOVA with post hoc comparison using Bonferroni's or Dunnett's T3 methods as determined by Levene's test for equality of the variances.

[2] = system: mouse primary microglial cells; experiment: TNF-α secretion by primary microglial cells stimulated with IFN-γ/CD40L or Aβ1-42/CD40L (ELISA); format: cell-based; settings: 24 hr, presence of JWH-015
Description: (§1) FIG. 3 is a block graph showing cannabinoid agonist effects on microglial (N9) activation. Cultured microglial cells were incubated with 100 ng/mL LPS (LPS), a combination of IFN-γ (100 U/mL) and CD-40L (2 μg/mL), or a combination of Aβ1-42 (1 μM) and CD-40L (2 μg/mL) and co-treated with JWH-015 (5 μM). Anti-CB2 siRNA was added to cells, abolishing the ability of JWH-015 to reduce LPS-induced cytokine release (n=3, **p<0.05). ELISA analysis of microglial cell release of (A) TNF-α and (B) NO was measured and mean levels per mg of total protein shown.
To examine the functional consequences of CB2 agonist treatment on CD40 expression, mouse primary microglial cells were stimulated with either IFN-γ/CD40L protein (Polazzi, E., A. Contestabile, Reciprocal interactions between microglia and neurons: from survival to neuropathology. Rev. Neurosci., 2002. 13(3): 221-242; Facchinetti, F., et al., Cannabinoids ablate release of TNFalpha in rat microglial cells stimulated with lypopolysaccharide. Glia, 2003. 41(2): 161-168; Walter, L., et al., Nonpsychotropic cannabinoid receptors regulate microglial cell migration. J. Neurosci. 2003. 23(4):1398-405) or Aβ1-42/CD40L protein in the presence or absence of JWH-015 for 24 hr. […] After 3 hr, the amount of phagocytosed Aβ1-42 peptide was determined by quantitative immunoblotting experiments, seen in FIG. 4. […]

[3] = system: mouse primary microglial cells; experiment: Microglial phagocytosis of Aβ1-42 / Cy3-Aβ1-42 with CD40L (phagocytosis assay, quantitative immunoblotting); format: cell-based
Description: FIG. 4 is a graph showing CB2 stimulation modulates microglial phagocytic function. Mouse primary microglial cells were seeded at 5×10^5 cells/well and treated with 3 μM Cy3™-Aβ1-42 with CD-40L protein (2.5 μg/mL), JWH-015 (5 μM) or both JWH-015 and CD-40L. Aβ mean band densities are represented as ratios to β-actin+/−SD (n=3 for each condition).
To examine the functional consequences of CB2 agonist treatment on CD40 expression, mouse primary microglial cells were stimulated with either IFN-γ/CD40L protein (Polazzi, E., A. Contestabile, Reciprocal interactions between microglia and neurons: from survival to neuropathology. Rev. Neurosci., 2002. 13(3): 221-242; Facchinetti, F., et al., Cannabinoids ablate release of TNFalpha in rat microglial cells stimulated with lypopolysaccharide. Glia, 2003. 41(2): 161-168; Walter, L., et al., Nonpsychotropic cannabinoid receptors regulate microglial cell migration. J. Neurosci. 2003. 23(4):1398-405) or Aβ1-42/CD40L protein in the presence or absence of JWH-015 for 24 hr. […] The canonical microglial function in the CNS is thought to be phagocytosis, given that IFN-γ and CD40 signaling are maturation agents that oppose this phagocytic function. Murine primary microglial cultures were exposed to 3 μM of Aβ1-42 (for immunoblotting) or Cy3™-Aβ1-42 (for phagocytosis assay) in the presence or absence of CD40L protein or CD40L protein/JWH-015. After 3 hr, the amount of phagocytosed Aβ1-42 peptide was determined by quantitative immunoblotting experiments, seen in FIG. 4. […] CD40 ligation decreased microglial phagocytosis compared to controls, while CB2 agonist treatment alone increased phagocytosis compared to control. The presence of JWH-015 rescued microglial phagocytosis of Cy3-Aβ1-42 following CD40L treatment.

[4] = system: N9 cells; experiment: Cannabinoid agonist effects on microglial (N9) activation: TNF-α and NO release; format: cell-based, murine; settings: JWH-015 5 μM
Description: as §1
Cannabinoid receptors are expressed on microglia and regulate microglial function. As such, cannabinoid regulation of CD40 activation of microglial was investigated. N9 cells, transfected for 18 hr with specific murine CB2 targeting siRNA (100 nM), were treated for 4 hr with lipopolysaccharid (LPS), a positive control of microglia activation.

[5] = system: primary cultured microglial cells; format: cell-based, murine
Description: Primary cultured microglial cells (1×10^5 cells/well in 24-well tissue-culture plates) were treated with FITC-tagged Aβ1-42 (300 nM, pre-aggregated for 24 h at 37° C. in complete medium for 60 mm in the absence (control) or presence of nicotine ([…]). In addition, in parallel 24-well tissue-culture plates, microglial cells were incubated at […] with the same treatment above. Cell supernatants and lysates were analyzed for (A) extracellular and (B) cell associated FITC-Aβ using a fluorometer.
Concentration-response and time-course functions for microglial phagocytosis (cellular uptake) of Aβ1-42 peptide were then characterized. […] To fully characterize these effects, primary microglial cells cultured in 24-well tissue-culture plates (1×10^5/well) were treated for 0, 15, 30, 60, 120, and 180 mm with “aged” FITC tagged Aβ1-42 peptide at 300 nM in the presence or absence of nicotine (0.1-10 μM), THC (0.01-10 μM), and their combination. The microglia were then administered nicotine (0.1-10 μM), THC (0.01-10 μM) and a combination. In addition, cannabinoid antagonists, AM 251 (CB1) and AM 281 […] (0.01-10 μM), cannabinoid agonists, ACEA (CB1) and JHW 015 (CB2) (0.01-10 μM), and nicotinic receptor antagonists, mecamylamine (α4β2) and α-bungorotoxin (α 7) (0.01-10 μM) were used in challenge experiments to determine receptor specificity. For fluorescence analysis, the cells were then washed 5 times with ice-cold PBS to remove the extracellular Aβ, and fixed in 4% paraformaldehyde. The cells were mounted and viewed under an Olympus IX71/IX51 fluorscence microscope equipped with a digital camera system. Image Pro software was used to quantify fluorescence signals, using a minimum of 5 random fields. For fluorometric analysis, microglial cells were treated in parallel, rinsing the cells 3 times with medium and the cells lysed. Extracellular and cell associated FITC tagged Aβ was quantified using an MFX 96-well microplate fluorometer (Molecular Devices, MDS, Inc., Sunnyvale, Calif.) with an emission wavelength of 538 nm and an excitation wavelength of 485 nm. A standard curve from 0 nM to 500 nM of FITC-tagged Aβ was run for each plate. The total cellular protein of all groups was quantified using the Bio-Rad protein assay. In addition, in parallel 24-well tissue-culture plates, microglial cells was incubated at 4° C. with FITC-conjugated Aβ with or without various combinations of CD40L as controls for non-specifically incorporated Aβ. Microglial cells was then rinsed 3 times in Aβ-free complete medium, and the media was exchanged with fresh Aβ-free complete medium for 10 min both to allow for removal of non-incorporated Aβ and to promote concentration of the Aβ into phagosomes. The mean fluorescence values for each sample at 37° C. and 4° C. at the indicated time points were determined by fluorometic analysis. Relative fold change values were calculated as: (mean fluorescence value for each sample at 37° C./mean fluorescence value for each sample at 4° C.). In this manner, both extracellular and cell associated FITC-labeled Aβ were quantified.
For phagocytosis experiments, an important concern is the possibility of extracellular association of Aβ with microglial cell membrane. To address this issue, microglial cells was rinsed in Aβ-free complete medium, and media was exchanged with fresh Aβ-medium for 10 mm both to allow for removal of non-specifically incorporated Aβ and to promote concentration of the Aβ into phagosomes. Microglial cells were further cultured in parallel 24-well plates incubated at 4° C. with FITC-tagged Aβ at the same time points in the presence or absence of the appropriate treatment as control for non-specifically incorporated Aβ.

[6] = system: Tg2576 transgenic mice; settings: mouse, in vivo; cited from earlier work
[7] = system: microglial cells

Q: With α-bungarotoxin as the compound, how does the “prevention of the ACh and nicotine inhibition of LPS-induced TNF-α release” value [1] read?
A: prevented

Q: For `CNC1(C)C2CCC(C2)C1(C)C` (centres unmarked) [mecamylamine], which “prevention of the ACh and nicotine inhibition of LPS-induced TNF-α release” value [1] is on record?
A: prevented

Q: Which results are given for `CCCn1c(C)c(C(=O)c2cccc3ccccc23)c2ccccc21` [JWH-015]?
A: secretion of TNF-α induced by Aβ1-42/CD40L [2]: significantly reduced; secretion of TNF-α induced by IFN-γ/CD40L [2]: significantly reduced; microglial phagocytosis compared to control ([3]; CB2 agonist treatment alone, 3 μM Aβ1-42, 3 hr): increased; microglial phagocytosis of Cy3-Aβ1-42 following CD40L treatment ([3]; JWH-015 5 μM with CD40L protein, 3 hr): rescued; CD40L-mediated impairment of microglial phagocytosis of Aβ1-42 (band density ratio of Aβ to β-actin) ([3]; Western immunoblotting, parallel experiment): significant attenuation; Aβ levels (Aβ band densities compared to β-actin) ([3]; quantitative immunoblotting, FIG. 4): significantly reduced; Aβ/CD-40L-induced NO production ([4]; Aβ1-42 1 μM, CD-40L 2 μg/mL, FIG. 3(B)): significantly reduced; IFN-γ/CD-40L-induced NO production ([4]; IFN-γ 100 U/mL, CD-40L 2 μg/mL, FIG. 3(B)): significantly reduced; LPS-induced TNF-α release ([4]; N9 cells, LPS 100 ng/mL 4 hr, FIG. 3(A)): reductions

Q: Which “cell-associated FITC-Aβ1-42” value ([5]; THC 5 μM) does the source give for `CCCCCc1cc(O)c2c(c1)OC(C)(C)[C@@H]1CCC(C)=C[C@@H]21` [THC, Δ^9-tetrahydrocannabinol] here?
A: increasing

Q: And the “extracellular FITC-Aβ1-42 remaining in the supernatant” value ([5]; THC 5 μM)?
A: markedly decreased

Q: What about the “receptor mediating the effect on microglial phagocytosis of Aβ” value ([5]; challenge experiments with receptor antagonists/agonists) of the same compound?
A: cannabinoid CB2 receptors

Q: Which results are given for `CN1CCCC1c1cccnc1` (centres unmarked) [nicotine]?
A: cell-associated FITC-Aβ1-42 [5]: increasing; extracellular FITC-Aβ1-42 remaining in the supernatant [5]: markedly decreased; microglial phagocytosis of Aβ1-42 peptide [5]: enhanced; receptor mediating the effect on microglial phagocytosis of Aβ [5]: α7 nicotinic receptors; LPS-induced TNF-α release [1]: inhibited; reduction in insoluble Aβ1-40 and Aβ1-42 peptides [6]: ~80%; microglial-released IL-1β [7]: effectively suppress; microglial-released IL-6 [7]: effectively suppress; microglial-released TNF-α [7]: effectively suppress
